These results are taken from ChEMBL document CHEMBL1145592, “Pleuromutilin derivatives having a purine ring. Part 1: new compounds with promising antibacterial activity against resistant Gram-positive pathogens” (2008).

In brackets after ≈: the same amount, converted by molar mass. Where only a bound is given, the exact number is not on record here.

What all share (assay type): functional
Test [1] deals with Staphylococcus aureus. Description: Antibacterial activity against methicillin-susceptible Staphylococcus aureus Smith infected twice iv dosed mouse 1 and 4 hrs after inoculation.
The subject of a further test is Streptococcus pyogenes. As to the kind of experiment: Antibacterial activity against Streptococcus pyogenes ATCC 12344.
A further test relates to Haemophilus influenzae. As to the kind of experiment: Antibacterial activity against Haemophilus influenzae TH13.
Test [2] concerns Staphylococcus aureus. As to the kind of experiment: Antibacterial activity against methicillin-resistant Staphylococcus aureus KMP9.
Test [3] deals with Staphylococcus aureus. As to the kind of experiment: Antibacterial activity against methicillin-susceptible Staphylococcus aureus Smith.
A further test concerns Enterococcus faecium. Description: Antibacterial activity against vancomycin-resistant Enterococcus faecium KU1778.
The test system of test [4] is Streptococcus pneumoniae. As to the kind of experiment: Antibacterial activity against penicillin-susceptible Streptococcus pneumoniae ATCC 49619.
Test [5] has as its system Streptococcus pneumoniae. Description: Antibacterial activity against penicillin-resistant Streptococcus pneumoniae KT2524.
A further test concerns Moraxella catarrhalis. Description: Antibacterial activity against Moraxella catarrhalis K1209.
The subject of test [6] is Streptococcus pneumoniae. As to the kind of experiment: Antibacterial activity against penicillin-susceptible Streptococcus pneumoniae 1.
Test [7] deals with Staphylococcus aureus. As to the kind of experiment: Antibacterial activity against methicillin-susceptible Staphylococcus aureus Smith infected iv dosed mouse 1 hr after inoculation.

As for `CC[C@]1(C)C[C@@H](OC(=O)CSc2nnc(N)[nH]2)[C@]2(C)[C@H](C)CC[C@]3(CCC(=O)[C@@H]32)[C@@H](C)[C@@H]1O`, the ED50 – broadly, the dose that gives a 50% effect, or the effect in half of the subjects – with Staphylococcus aureus [1] turned out to be 6.88 mg/kg. Also, the MIC against Streptococcus pyogenes amounted to 0.25 µg/mL (≈ 0.522 µM); against Haemophilus influenzae it was 0.5 µg/mL (≈ 1.04 µM); against Staphylococcus aureus [2] it was 2 µg/mL (≈ 4.18 µM); against Staphylococcus aureus [3], 0.5 µg/mL (≈ 1.04 µM); against Enterococcus faecium, 0.25 µg/mL (≈ 0.522 µM); in the test with Streptococcus pneumoniae [4] it was 0.5 µg/mL (≈ 1.04 µM). The MIC against Streptococcus pneumoniae [5] came to 0.5 µg/mL (≈ 1.04 µM); with Moraxella catarrhalis, 0.032 µg/mL (≈ 0.0669 µM).
With `C=C[C@]1(C)C[C@@H](OC(=O)CSC2CCN(C(=O)CCn3cnc4cnc(N)nc43)CC2)[C@]2(C)[C@H](C)CC[C@]3(CCC(=O)[C@@H]32)[C@@H](C)[C@@H]1O`, the MIC amounted to 0.05 µg/mL (≈ 0.075 µM) against Streptococcus pneumoniae [6]; 0.063 µg/mL (≈ 0.0945 µM) against Streptococcus pyogenes; 2 µg/mL (≈ 3 µM) against Haemophilus influenzae; 0.05 µg/mL (≈ 0.075 µM) with Staphylococcus aureus [2]; 0.05 µg/mL (≈ 0.075 µM) in the test on Staphylococcus aureus [3]; 0.05 µg/mL (≈ 0.075 µM) in the test on Enterococcus faecium. The MIC was 0.125 µg/mL (≈ 0.187 µM) against Streptococcus pneumoniae [4], 0.063 µg/mL (≈ 0.0945 µM) in the test with Streptococcus pneumoniae [5] and 0.25 µg/mL (≈ 0.375 µM) with Moraxella catarrhalis. Besides, the ED50 with Staphylococcus aureus [7] was below 3.13 mg/kg.
Turning to `C=C[C@]1(C)C[C@@H](OC(=O)CSC2CCN(C(=O)CCn3cnc4c(N5CCNCC5)nc(N)nc43)CC2)[C@]2(C)[C@H](C)CC[C@]3(CCC(=O)[C@@H]32)[C@@H](C)[C@@H]1O`, the values for the median effective dose (ED50) in the test on Staphylococcus aureus [1] and in the test on Staphylococcus aureus [7] were 1.51 mg/kg and below 3.13 mg/kg, respectively. For the same molecule, the MIC against Streptococcus pneumoniae [6] was determined as 0.063 µg/mL (≈ 0.0839 µM); in the test on Streptococcus pyogenes it was 0.032 µg/mL (≈ 0.0426 µM); with Haemophilus influenzae, 1 µg/mL (≈ 1.33 µM); with Staphylococcus aureus [2], 0.5 µg/mL (≈ 0.666 µM); in the test with Staphylococcus aureus [3] it was 0.25 µg/mL (≈ 0.333 µM); against Enterococcus faecium, 0.25 µg/mL (≈ 0.333 µM). The MIC was found to be 0.063 µg/mL (≈ 0.0839 µM) in the test with Streptococcus pneumoniae [4], 0.063 µg/mL (≈ 0.0839 µM) in the test with Streptococcus pneumoniae [5] and 0.25 µg/mL (≈ 0.333 µM) against Moraxella catarrhalis.
